Test system: serum cytokine/chemokine/growth factor/ligands of ALS patient
Assay: Serum Luminex, before and after NAC treatment
Assay type: in vivo, human
Method: (§1) Serum Luminex. Serum from patients were used to determine the levels of cytokine/chemokine/growth factor/ligands secretion using multiplex luminex assay. Scatter plot was prepared using the levels of cytokine/chemokine/growth factor/ligands in serum obtained at different dates from patients as compared to controls.
Serum Luminex. Serum from patients were used to determine the levels of cytokine/chemokine/growth factor/ligands secretion using multiplex luminex assay.
as §1

[1] = JC sera May 7, 2020 (NAC infusion)
[2] = JC sera May 14, 2020 (NAC infusion)
[3] = JC sera May 21, 2020 (NAC infusion)
[4] = JC sera May 28, 2020 (NAC infusion)
[5] = serum of ALS patient after NAC treatment

CC(=O)N[C@@H](CS)C(=O)O [NAC, N-Acetyl-Cysteine]
IL-17A [1]: 2.78 pg/mL
ITAC [1]: 13.07 pg/mL
MIP-3a [1]: 7.8 pg/mL
IL-2 (JC sera May 12, 2020): 0 pg/mL
IL-4 (JC sera May 12, 2020): 10.14 pg/mL
IL-6 (JC sera May 12, 2020): 1.76 pg/mL
IL-7 (JC sera May 12, 2020): 5.13 pg/mL
IL-8 (JC sera May 12, 2020): 4.18 pg/mL
IL-21 (JC sera May 12, 2020): 0.62 pg/mL
IL-23 (JC sera May 12, 2020): 92.37 pg/mL
MIP-1a (JC sera May 12, 2020): 11.8 pg/mL
MIP-1b (JC sera May 12, 2020): 25.53 pg/mL
TNFa (JC sera May 12, 2020): 7.14 pg/mL
IL-2 (JC sera May 14, 2020): 8.16 pg/mL
IL-4 (JC sera May 14, 2020): 13.73 pg/mL
IL-5 (JC sera May 14, 2020): 1.72 pg/mL
IL-6 (JC sera May 14, 2020): 1.07 pg/mL
IL-7 (JC sera May 14, 2020): 6.39 pg/mL
IL-8 (JC sera May 14, 2020): 5.32 pg/mL
IL-21 (JC sera May 14, 2020): 0.56 pg/mL
IL-23 (JC sera May 14, 2020): 106.21 pg/mL
MIP-1a (JC sera May 14, 2020): 12.15 pg/mL
MIP-1b (JC sera May 14, 2020): 19.37 pg/mL
TNFa (JC sera May 14, 2020): 7.77 pg/mL
Franktalkine [2]: 31.36 pg/mL
GM-CSF [2]: 53.64 pg/mL
IFNg [2]: 4.14 pg/mL
IL-1b [2]: 0.8 pg/mL
IL-10 [2]: 4.47 pg/mL
IL-12p70 [2]: 1.81 pg/mL
IL-13 [2]: 4.08 pg/mL
IL-17A [2]: 2.24 pg/mL
ITAC [2]: 12.13 pg/mL
MIP-3a [2]: 6.78 pg/mL
Franktalkine [3]: 32.65 pg/mL
GM-CSF [3]: 48.19 pg/mL
IFNg [3]: 5.58 pg/mL
IL-1b [3]: 0.8 pg/mL
IL-10 [3]: 3.7 pg/mL
IL-12p70 [3]: 1.72 pg/mL
IL-13 [3]: 3.99 pg/mL
ITAC [3]: 15.13 pg/mL
MIP-3a [3]: 6.78 pg/mL
IL-2 (JC sera May 28, 2020): 0.01 pg/mL
IL-4 (JC sera May 28, 2020): 11.8 pg/mL
IL-5 (JC sera May 28, 2020): 2.21 pg/mL
IL-6 (JC sera May 28, 2020): 2.03 pg/mL
IL-7 (JC sera May 28, 2020): 5.99 pg/mL
IL-8 (JC sera May 28, 2020): 4.47 pg/mL
IL-21 (JC sera May 28, 2020): 0.75 pg/mL
IL-23 (JC sera May 28, 2020): 144.83 pg/mL
MIP-1a (JC sera May 28, 2020): 11.46 pg/mL
MIP-1b (JC sera May 28, 2020): 25.53 pg/mL
TNFa (JC sera May 28, 2020): 8.64 pg/mL
Franktalkine [4]: 37.04 pg/mL
GM-CSF [4]: 75.6 pg/mL
IFNg [4]: 8.94 pg/mL
IL-1b [4]: 0.87 pg/mL
IL-10 [4]: 6.63 pg/mL
IL-12p70 [4]: 2.16 pg/mL
IL-13 [4]: 4.44 pg/mL
IL-17A [4]: 5.49 pg/mL
ITAC [4]: 14.77 pg/mL
MIP-3a [4]: 8.17 pg/mL
serum cytokines of ALS patient compared to healthy twin after NAC treatment (serum Luminex, Table 137): only IFN-g and TNF-α remained higher in ALS patient when compared to healthy twin
change of serum cytokines after NAC treatment (serum from ALS patient, Table 138): Decrease in respective cytokines
Fractalkine [5]: 39.89
GCSF [5]: 82.17
IFNa2 [5]: 22.87
IFNg [5]: 21.25
IL-6 [5]: 14.86
IL-12p40 [5]: 15.96
IL-12p70 [5]: 9.801
IL-17a [5]: 14.45
Rantes [5]: 9578
TNFa (serum of ALS patient after NAC treatment, in pg/mL): 29.18
